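96-well plates; 48 h exposure; 5 concentrations. Endpoints by linear interpolation between flanking doses. Not reached: highest tested concentration assigned. GI50: concentration for 50% inhibition of growth.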 Active and inactive are the calls of the source. Rule as the data show it: active = GI50 up to about 1.1 µM and inactive = higher.
Legend:
Assay in all cases: NCI tumour cell line growth inhibition, 48 h
OVCAR-8 = system: OVCAR-8
HT-29 = system: HT-29
RXF 393 = system: RXF 393
KM12 = system: KM12
HCT-15 = system: HCT-15
TK-10 = system: TK-10
SK-MEL-28 = system: SK-MEL-28
EKVX = system: EKVX
SF-295 = system: SF-295
HOP-92 = system: HOP-92
SK-MEL-5 = system: SK-MEL-5
UACC-257 = system: UACC-257
A549 = system: A549
COLO 205 = system: COLO 205
SNB-19 = system: SNB-19
SW-620 = system: SW-620
HOP-62 = system: HOP-62
OVCAR-3 = system: OVCAR-3
DU-145 = system: DU-145
NCI/ADR-RES = system: NCI/ADR-RES

Measured: GI50

CCOC(=O)C(C(=O)OCC)c1cc(-c2cc3ccccc3o2)oc(=O)c1C#N
19.1 µM: HCT-15
inactive: OVCAR-8 21.4 µM | HT-29 18.6 µM | RXF 393 19.6 µM | KM12 35.6 µM | TK-10 27.3 µM | SK-MEL-28 25.1 µM | EKVX 39.7 µM | SF-295 22.2 µM | HOP-92 3.41 µM | SK-MEL-5 32.5 µM | UACC-257 25.6 µM | A549 33.4 µM | COLO 205 20.5 µM | SNB-19 37.3 µM | SW-620 23.1 µM

CCOC(=O)C(OP(=O)(OCC)OCC)C(F)(F)F (stereo not drawn)
> 100 µM: HCT-15
inactive: HT-29 > 100 µM | RXF 393 > 100 µM | KM12 > 100 µM | TK-10 > 100 µM | SK-MEL-28 > 100 µM | EKVX > 100 µM | HOP-62 > 100 µM | UACC-257 > 100 µM | SNB-19 > 100 µM | OVCAR-3 > 100 µM | DU-145 > 100 µM

COc1cccc2c1C(=O)c1c(O)c3c(c(O)c1C2=O)C[C@@](O)(C(C)=O)C[C@@H]3OC1CC(O)C(O)C(C)O1 (stereo partly drawn)
inactive: OVCAR-8 1.3 µM | HT-29 1.41 µM | RXF 393 1.17 µM | KM12 1.55 µM | TK-10 5.74 µM | SK-MEL-28 6.08 µM | EKVX 6.67 µM | HOP-92 2.1 µM | UACC-257 3.79 µM | COLO 205 2.05 µM | OVCAR-3 3.69 µM | DU-145 1.62 µM
1.43 µM: HCT-15
active: NCI/ADR-RES 0.36 µM | SF-295 0.673 µM | HOP-62 0.307 µM | SK-MEL-5 0.875 µM | A549 0.465 µM | SNB-19 1.09 µM | SW-620 0.536 µM

NCc1ccc(O)c(O)c1
> 100 µM: HCT-15
inactive: OVCAR-8 > 100 µM | HT-29 > 100 µM | RXF 393 > 100 µM | NCI/ADR-RES > 100 µM | KM12 > 100 µM | SK-MEL-28 > 100 µM | EKVX > 100 µM | SF-295 > 100 µM | HOP-92 > 100 µM | HOP-62 > 100 µM | SK-MEL-5 > 100 µM | UACC-257 > 100 µM | A549 > 100 µM | COLO 205 > 100 µM | SNB-19 > 100 µM | OVCAR-3 55.8 µM | DU-145 > 100 µM | SW-620 > 100 µM

O=C(NC(Cc1ccc(I)cc1)C(=O)O)c1ccc(Br)cc1 (stereo not drawn)
> 100 µM: HCT-15
inactive: OVCAR-8 > 100 µM | HT-29 > 100 µM | RXF 393 > 100 µM | NCI/ADR-RES > 100 µM | KM12 > 100 µM | SK-MEL-28 > 100 µM | EKVX 17.2 µM | SF-295 > 100 µM | HOP-92 76.7 µM | HOP-62 > 100 µM | SK-MEL-5 > 67.1 µM | UACC-257 > 100 µM | A549 > 100 µM | COLO 205 > 100 µM | SNB-19 > 86.7 µM | OVCAR-3 89.7 µM | SW-620 > 100 µM

Clc1ccccc1/C=C/c1cscn1
> 100 µM: HCT-15
inactive: HT-29 > 100 µM | RXF 393 > 100 µM | KM12 > 100 µM | TK-10 > 100 µM | SK-MEL-28 > 100 µM | EKVX > 100 µM | HOP-62 > 100 µM | UACC-257 > 100 µM | SNB-19 > 100 µM | OVCAR-3 > 100 µM

O=C1[C@@H]2C(c3c(Cl)cccc3Cl)=NO[C@@H]2C(=O)N1c1ccc(Cc2ccc(N3C(=O)[C@H]4C(c5c(Cl)cccc5Cl)=NO[C@H]4C3=O)cc2)cc1
> 100 µM: HCT-15
inactive: OVCAR-8 > 100 µM | HT-29 > 100 µM | RXF 393 > 100 µM | KM12 > 100 µM | TK-10 > 100 µM | SK-MEL-28 > 100 µM | EKVX > 100 µM | SF-295 > 100 µM | HOP-92 > 100 µM | HOP-62 > 100 µM | SK-MEL-5 > 100 µM | UACC-257 > 100 µM | A549 > 100 µM | COLO 205 > 100 µM | OVCAR-3 > 100 µM | SW-620 > 100 µM

NC(=O)N/N=C\CC(O)(C(F)(F)Cl)C(F)(F)Cl
inactive: OVCAR-8 > 10 µM | HT-29 > 10 µM | RXF 393 > 10 µM | NCI/ADR-RES > 10 µM | KM12 > 10 µM | TK-10 > 10 µM | SK-MEL-28 > 10 µM | EKVX > 10 µM | SF-295 > 10 µM | HOP-92 > 10 µM | HOP-62 > 10 µM | SK-MEL-5 > 10 µM | UACC-257 > 10 µM | A549 > 10 µM | COLO 205 > 10 µM | SNB-19 > 10 µM | OVCAR-3 > 10 µM | DU-145 > 10 µM | SW-620 > 10 µM
> 10 µM: HCT-15
